Assay results: patent US6583180B2, “Glucocorticoid receptor modulators” (Abbott Laboratories, priority 2001, dated 2003)

Target: T1, Human glucocorticoid receptors (Homo sapiens, UniProt P04150)
T1 construct: made in house; host or cells: Sf9 insect cells, recombinant baculovirus (BAC-TO-BAC)
T1 sequence (P04150 1-777): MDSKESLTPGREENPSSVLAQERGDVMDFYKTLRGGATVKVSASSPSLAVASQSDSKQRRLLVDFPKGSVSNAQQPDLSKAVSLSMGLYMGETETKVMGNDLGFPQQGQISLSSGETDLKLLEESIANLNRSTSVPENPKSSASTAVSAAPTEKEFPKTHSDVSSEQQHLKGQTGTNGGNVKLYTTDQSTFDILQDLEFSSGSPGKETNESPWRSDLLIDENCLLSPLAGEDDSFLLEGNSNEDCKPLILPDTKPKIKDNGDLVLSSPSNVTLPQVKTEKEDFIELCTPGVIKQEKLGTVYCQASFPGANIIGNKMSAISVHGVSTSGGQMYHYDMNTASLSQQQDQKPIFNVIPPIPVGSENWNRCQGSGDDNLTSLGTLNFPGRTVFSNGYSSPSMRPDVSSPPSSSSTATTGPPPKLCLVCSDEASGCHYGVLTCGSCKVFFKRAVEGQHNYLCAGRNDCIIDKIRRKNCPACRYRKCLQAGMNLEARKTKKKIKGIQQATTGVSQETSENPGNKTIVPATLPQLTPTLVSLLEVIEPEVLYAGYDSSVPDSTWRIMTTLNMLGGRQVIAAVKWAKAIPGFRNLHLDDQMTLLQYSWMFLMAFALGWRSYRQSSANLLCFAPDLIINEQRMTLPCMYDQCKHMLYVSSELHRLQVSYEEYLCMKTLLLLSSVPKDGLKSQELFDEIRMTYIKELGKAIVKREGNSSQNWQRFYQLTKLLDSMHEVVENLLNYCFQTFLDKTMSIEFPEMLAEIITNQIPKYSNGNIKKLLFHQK
Test: Radioligand filter binding assay, displacement of 3[H]-dexamethasone from hGR
Settings: read-out: GR Binding (% Inhibition at 1.7 μM)
Description: Dexamethasone hereafter referred to as dex was purchased from SIGMA. […] Human glucocorticoid receptors were extracted from Sf9 cells infected with a recombinant baculovirus transfer vector containing the cloned hGR genes. Recombinant baculovirus was generated utilizing the BAC-TO-BAC expression system (Life Technologies) in accordance to instruction from the supplier. The hGR coding sequences were cloned into a baculovirus transfer vector by standard techniques. The recombinant baculoviruses expressing hGR were amplified and used to infect Sf9 cells. Infected cells were harvested 48 hrs post infection. […] The concentration of hGR in the extract was measured as specific ^3[H]-dex binding with the G25-assay as described in J. Steroid Biochem. Molec. […] The extract was aliquoted and stored at −70° C.
The filter binding assay: Dilution series of the test compounds and dex as reference were made from 10 mM (1 mM dex) stock solutions in DMSO. 10 μl of the dilutions was added in duplicates to the wells. The cell extracts were diluted 10 fold in EPMo+MTG buffer (1 mM EDTA, HPO4 20 mM (pH8), 6 mM MTG). […] 110 μl of the diluted ^3[H]-dex were added to the wells. The final concentration of hGR in the experiment was estimated to 1 nM. All preparations were made in […] on ice and with +4° C. temperated buffers. The plates were incubated over night at +4° C. (15-20 hours).
The incubation was stopped by filtration through GF/B filter on the Tomtec Cellharvester. The filtration on the Tomtec Cellharvester was programmed as follows: 1) Preparation before filtration with EP buffer (1 mM EDTA 20 mM HPO4 (pH8)) 2×[Wash/Asp 0.6 sec., Asp 0.5 sec.]; 2) Prewet of GF/B filter with EP+PEI buffer (EP buffer, 0.3% Polyethylenimine) [Asp 0.8 sec.]; 3) Filtration/harvesting of the 96-well incubation plate 3×[Wash/Asp 0.6 sec., Asp 0.5 sec.]. The GF/B filter was dried for at least 1 hour at 65° C. A MeltiLex scintillation wax was melted onto the filter with the Microsealer. The filter was placed in a samplebag, which was thereafter trimmed with scissors to fit the filter cassette. The cassette were placed in the Microbeta and measured for 1 min/position, returning ccpm (corrected counts per minute).
b=((bmax−bmin)/(1+(I/IC50)^S))+bminI
The Microbeta-instrument generates the mean cpm (counts per minute) value/minute and corrects for individual variations between the detectors thus generating corrected cpm values.

`Cc1c(NS(C)(=O)=O)cccc1N(Cc1ccccc1)Cc1ccc(Oc2ccc(OCCCCC(=O)N[C@@H](CCC(=O)O)C(=O)O)cc2)cc1` [Example 265, N-[5-(4-{4-[(benzyl{2-methyl-3-[(methylsulfonyl)amino]phenyl}amino)methyl]phenoxy}phenoxy)pentanoyl]-L-glutamic acid] was tested, and the inhibition at 1.7 µM was 90%.

For `Cc1c(NS(C)(=O)=O)cccc1N(Cc1ccc(OCc2ccc3c(c2)OCO3)cc1)Cc1ccc(F)cc1F` [Example 156, N-{3-[[4-(1,3-benzodioxol-5-ylmethoxy)benzyl](2,4-difluorobenzyl)amino]-2-methylphenyl}methanesulfonamide], the inhibition at 1.7 µM was 94.9%.

Molecule `Cc1c(NS(C)(=O)=O)cccc1N(Cc1ccc(Oc2ccc(Cl)c(OCC(=O)O)c2)cc1)Cc1ccc(F)c(F)c1` [Example 313, (2-chloro-5-(4-(((3,4-difluorobenzyl)(2-methyl-3-((methylsulfonyl)amino)phenyl)amino)methyl)phenoxy)phenoxy)acetic acid] has an inhibition at 1.7 µM of 96.3%.

For `Cc1c(NS(C)(=O)=O)cccc1N(Cc1ccc(Oc2ccc(Cl)c(O[C@H](C)C(=O)O)c2)cc1)Cc1ccc(F)cc1F` [Example 321, (2R)-2-(2-chloro-5-(4-(((2,4-difluorobenzyl)(2-methyl-3-((methylsulfonyl)amino)phenyl)amino)methyl)phenoxy)phenoxy)propanoic acid], the inhibition at 1.7 µM was 96.4%.

`Cc1c(NS(C)(=O)=O)cccc1N(Cc1ccccc1)Cc1ccc(Oc2ccc(OCCCCC(=O)O)cc2)cc1` [Example 234, 5-(4-{4-[(benzyl{2-methyl-3-[(methylsulfonyl)amino]phenyl}amino)methyl]phenoxy}phenoxy)pentanoic acid] was tested, and the inhibition at 1.7 µM was 96.1%.

In the case of `Cc1c(NS(C)(=O)=O)cccc1N(Cc1ccccc1)Cc1ccc(-c2ccccc2C#N)cc1` [Example 146, N-(3-{benzyl[(2′-cyano-1,1′-biphenyl-4-yl)methyl]amino}-2-methylphenyl)methanesulfonamide], the inhibition at 1.7 µM is reported as 28.1%.

With `C=Cc1c(NS(C)(=O)=O)cccc1N(Cc1ccccc1)Cc1ccccc1` [Example 44, N-[3-(dibenzylamino)-2-vinylphenyl]methanesulfonamide] the inhibition at 1.7 µM was 89.2%.

In the case of `Cc1c(NS(C)(=O)=O)cccc1N(Cc1ccccc1)Cc1ccc(Oc2cccc(OCc3cccnc3)c2)cc1` [Example 290, N-[3-(benzyl{4-[3-(pyridin-3-ylmethoxy)phenoxy]benzyl}amino)-2-methylphenyl]methanesulfonamide], the inhibition at 1.7 µM is reported as 89.1%.

For `Cc1c(NS(C)(=O)=O)cccc1N(Cc1ccccc1)Cc1ccc(Oc2cccc(OC3CCOCC3)c2)cc1` [Example 287, N-[3-(benzyl{4-[3-(tetrahydro-2H-pyran-4-yloxy)phenoxy]benzyl}amino)-2-methylphenyl]methanesulfonamide], the inhibition at 1.7 µM was 89.2%.

`Cc1c(NS(C)(=O)=O)cccc1N(Cc1ccccc1)Cc1ccc(Oc2cccc(OC[C@@H]3CCC(=O)N3)c2)cc1` [Example 278, N-(3-{benzyl[4-(3-{[(2S)-5-oxopyrrolidin-2-yl]methoxy}phenoxy)benzyl]amino}-2-methylphenyl)methanesulfonamide] showed an inhibition at 1.7 µM of 90.1%.

Work on `Cc1c(NS(C)(=O)=O)cccc1N(Cc1ccccc1)Cc1ccc(Oc2ccc(OCCCCC(=O)NCCC(=O)O)cc2)cc1` [Example 262, N-[5-(4-{4-[(benzyl{2-methyl-3-[(methylsulfonyl)amino]phenyl}amino)methyl]phenoxy}phenoxy)pentanoyl]-beta-alanine] yielded an inhibition at 1.7 µM of 92.2%.

`CC[C@H](C)[C@H](NC(=O)CCCCOc1ccc(Oc2ccc(CN(Cc3ccccc3)c3cccc(NS(C)(=O)=O)c3C)cc2)cc1)C(=O)O` [Example 270, N-[5-(4-{4-[(benzyl{2-methyl-3-[(methylsulfonyl)amino]phenyl}amino)methyl]phenoxy}phenoxy)pentanoyl]-L-isoleucine] gave an inhibition at 1.7 µM of 91.1%.
